Columns and labels:
Ovis aries = species on record: Ovis aries; test: Inhibition of sheep brain tubulin polymerization at 100 uM by fluorescence assay
[1] = Growth inhibition of human MOLT4 cells at 10^-5 M after 48 hrs by SRB assay; type: functional; conditions: MOLT-4, 48 h, read-out: GI
HL-60(TB) = test: Growth inhibition of human HL-60(TB) cells at 10^-5 M after 48 hrs by SRB assay; type: functional; conditions: HL-60, 48 h, read-out: GI
NCI-H522 = test: Growth inhibition of human NCI-H522 cells at 10^-5 M after 48 hrs by SRB assay; type: functional; conditions: NCI-H522, 48 h, read-out: GI
[2] = Growth inhibition of human HCT116 cells at 10^-5 M after 48 hrs by SRB assay; type: functional; conditions: HCT-116, 48 h, read-out: GI
[3] = Growth inhibition of human HCT15 cells at 10^-5 M after 48 hrs by SRB assay; type: functional; conditions: HCT-15, 48 h, read-out: GI
MDA-MB-435 = test: Growth inhibition of human MDA-MB-435 cells at 10^-5 M after 48 hrs by SRB assay; type: functional; conditions: MDA-MB-435, 48 h, read-out: GI
Malme-3M = test: Growth inhibition of human MALME-3M cells at 10^-5 M after 48 hrs by SRB assay; type: functional; conditions: read-out: GI
A498 = test: Growth inhibition of human A498 cells at 10^-5 M after 48 hrs by SRB assay; type: functional; conditions: A498, 48 h, read-out: GI
CAKI-1 = test: Growth inhibition of human Caki1 cells at 10^-5 M after 48 hrs by SRB assay; type: functional; conditions: CAKI-1, 48 h, read-out: GI
[4] = Growth inhibition of human PC3 cells at 10^-5 M after 48 hrs by SRB assay; type: functional; conditions: PC-3, 48 h, read-out: GI
[5] = Growth inhibition of human SF295 cells at 10^-5 M after 48 hrs by SRB assay; type: functional; conditions: SF-295, 48 h, read-out: GI
SNB-75 = test: Growth inhibition of human SNB75 cells at 10^-5 M after 48 hrs by SRB assay; type: functional; conditions: SNB-75, 48 h, read-out: GI
MCF7 = test: Growth inhibition of human MCF7 cells at 10^-5 M after 48 hrs by SRB assay; type: functional; conditions: MCF7, 48 h, read-out: GI
T47D = test: Growth inhibition of human T47D cells at 10^-5 M after 48 hrs by SRB assay; type: functional; conditions: Homo sapiens, T47D, 48 h; read-out: GI
[6] = Growth inhibition of human EKVX cells at 10^-5 M after 48 hrs by SRB assay; type: functional; conditions: read-out: GI
[7] = Growth inhibition of human HOP92 cells at 10^-5 M after 48 hrs by SRB assay; type: functional; conditions: HOP-92, 48 h, read-out: GI

SMILES	inhibition (Ovis aries) [%]	inhibition of growth at 10 µM [1] [%]	inhibition of growth at 10 µM (HL-60(TB)) [%]	inhibition of growth at 10 µM (NCI-H522) [%]	inhibition of growth at 10 µM [2] [%]	inhibition of growth at 10 µM [3] [%]	inhibition of growth at 10 µM (MDA-MB-435) [%]	inhibition of growth at 10 µM (Malme-3M) [%]	inhibition of growth at 10 µM (A498) [%]	inhibition of growth at 10 µM (CAKI-1) [%]	inhibition of growth at 10 µM [4] [%]	inhibition of growth at 10 µM [5] [%]	inhibition of growth at 10 µM (SNB-75) [%]	inhibition of growth at 10 µM (MCF7) [%]	inhibition of growth at 10 µM (T47D) [%]	inhibition of growth at 10 µM [6] [%]	inhibition of growth at 10 µM [7] [%]
COc1cc(C(=O)c2cc(C(=O)O)c3cccc(C)n23)cc(OC)c1OC	28	7	3	15	0	7	0	0	2	0	5	0	9	12	0	–	–
CCOC(=O)c1cc(C(=O)c2cc(OC)c(OC)c(OC)c2)n2ccc(C#N)cc12	13	–	–	–	–	–	–	–	–	–	–	–	–	–	–	–	–
COC(=O)c1c(C(=O)OC)c2cc(OC)ccn2c1C(=O)c1cc(OC)c(OC)c(OC)c1	16	0	1	4	2	13	4	0	0	2	–	11	0	0	6	7	–
CCOC(=O)c1cc(C(=O)c2ccc(OC)cc2)n2cc(C)cc(C)c12	32	–	83	43	23	14	11	28	30	24	20	35	46	17	13	29	11
CCOC(=O)c1cc(C(=O)c2cc(OC)c(OC)c(OC)c2)n2ccc(N(C)C)cc12	36	7	8	0	0	0	5	0	11	10	12	0	0	7	5	9	–
COC(=O)c1c(C(=O)OC)c2c(C)cc(C)cn2c1C(=O)c1cc(OC)c(OC)c(OC)c1	36	–	–	–	–	–	–	–	–	–	–	–	–	–	–	–	–
COc1cc(C(=O)c2cc(C#N)c3c(C#N)cccn23)cc(OC)c1OC	39	0	7	0	11	23	54	28	0	6	12	–	69	29	10	–	8
CCOC(=O)c1cc(C(=O)c2cc(OC)c(OC)c(OC)c2)n2ccc(OC)cc12	9	0	17	44	18	21	89	13	52	32	31	32	12	37	5	4	8
COC(=O)c1c(C(=O)OC)c2cc(C)ccn2c1C(=O)c1cc(OC)c(OC)c(OC)c1	2	4	7	5	0	3	0	8	3	3	1	0	7	0	3	0	5
COC(=O)c1c(C(=O)OC)c2cccc(C)n2c1C(=O)c1cc(OC)c(OC)c(OC)c1	32	–	–	–	–	–	–	–	–	–	–	–	–	–	–	–	–
CCOC(=O)c1cc(C(=O)c2cc(OC)c(OC)c(OC)c2)n2ccc3ccccc3c12	41	–	–	–	–	–	–	–	–	–	–	–	–	–	–	–	–
CCOC(=O)c1c(C(=O)OCC)c2cc(C)ccn2c1C(=O)c1cc(OC)c(OC)c(OC)c1	39	–	–	–	–	–	–	–	–	–	–	–	–	–	–	–	–
CCOC(=O)c1c(C(=O)OCC)c2cc(N(C)C)ccn2c1C(=O)c1cc(OC)c(OC)c(OC)c1	26	–	–	–	–	–	–	–	–	–	–	–	–	–	–	–	–
CCOC(=O)c1c2c(O)nnc(-c3cc(OC)c(OC)c(OC)c3)c2n2cc(C)cc(C)c12	43	0	0	1	6	0	0	0	15	0	0	0	5	0	0	–	0
COc1cc(C(=O)c2cc(C#N)c3cc(C#N)ccn23)cc(OC)c1OC	46	2	20	12	2	21	81	26	10	3	8	4	7	15	6	–	0
COC(=O)c1c(C(=O)OC)c2cc(OC)ccn2c1C(=O)c1ccc(OC)cc1	34	0	6	–	0	0	2	0	7	18	19	10	0	0	2	13	0
CCOC(=O)c1cc(C(=O)c2cc(OC)c(OC)c(OC)c2)n2cc(C)cc(C)c12	3	0	0	8	45	0	4	25	–	13	2	3	11	4	18	6	29
COC(=O)c1c2c(O)nnc(-c3ccc(OC)cc3)c2n2cc(C)cc(C)c12	58	15	7	22	2	0	0	0	45	15	24	2	19	6	–	–	21
